# Entries after “also recorded” stand apart in the source; their conditions may differ.
# What was measured:
# [1] = tested on: human platelets; assay: Electron microscopy (HR-LVSEM, TEM) of platelet shape changes; format: cell-based; details: 100 μM
# Description: HR-LVSEM was utilized for topographical imaging of the platelet surface membrane, as previously reported (D'Cruz et al., 1998). […] Treated platelets were then stimulated with collagen (10 μg/mL) or thrombin (0.1 U/mL) for 10 seconds (FIGS. 3A-3F). 3% glutaraldehyde was added to stop the reaction. Samples were prepared for HR-LVSEM as previously described (D'Cruz et al., 1998) and analyzed using a Hitachi S-900 SEM instrument (Hitachi Instruments, Gaithersburg, Md.) at an accelerating voltage of 2 kV and […].
# Samples were then prepared for TEM as previously described (White, 1983). Briefly, 0.1% glutaraldehyde was added to stop the reaction. Following a brief centrifugation, the sample pellets were layered with 3% glutaraldehyde for 40 minutes at room temperature. The samples were then postfixed in 1% OsO4 for 1 hour at 4° C., rinsed three times in distilled water at room temperature, dehydrated in a graded ethanol series (25, 50, 75, 90, 95 and 100%) and 100% propylene oxide. The samples were embedded in Embed 812 (Electron Microscopy Science, Washington, Pa.). Silver sections were picked up on mesh grids, stained 10 minutes in 1% uranyle acetate/70% ethanol, and 10 minutes in Reynold's lead citrate. […] True magnifications were determined by photographing a calibration grid at each magnification step on the microscope and using this scale to determine final print enlargements.
# [2] = target: T1, TEC kinase (Homo sapiens, UniProt P42680); assay: TEC immune complex kinase assay from collagen-stimulated platelets; format: cell-based
# T1 sequence (P42680 1-631): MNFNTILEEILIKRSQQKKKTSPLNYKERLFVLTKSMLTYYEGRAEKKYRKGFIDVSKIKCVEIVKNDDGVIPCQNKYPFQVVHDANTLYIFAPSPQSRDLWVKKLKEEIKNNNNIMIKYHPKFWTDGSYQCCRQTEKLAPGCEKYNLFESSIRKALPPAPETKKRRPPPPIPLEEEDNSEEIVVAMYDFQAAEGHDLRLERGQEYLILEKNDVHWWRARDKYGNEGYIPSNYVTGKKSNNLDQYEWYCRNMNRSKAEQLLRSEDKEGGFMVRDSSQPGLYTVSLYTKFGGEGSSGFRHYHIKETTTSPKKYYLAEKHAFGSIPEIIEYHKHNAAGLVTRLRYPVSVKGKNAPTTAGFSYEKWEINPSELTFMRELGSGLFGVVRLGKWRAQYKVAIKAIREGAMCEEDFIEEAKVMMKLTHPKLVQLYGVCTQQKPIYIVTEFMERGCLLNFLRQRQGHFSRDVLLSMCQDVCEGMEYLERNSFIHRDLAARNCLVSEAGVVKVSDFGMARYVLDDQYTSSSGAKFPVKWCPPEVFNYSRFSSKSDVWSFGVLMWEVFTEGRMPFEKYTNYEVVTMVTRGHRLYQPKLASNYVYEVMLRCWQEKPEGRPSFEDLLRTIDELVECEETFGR
# Description: Platelets were isolated from platelet rich plasma (PRP) purchased from the Memorial Blood Bank (Minneapolis, Minn.) as previously described (Asselin et al. 1997) and used at a concentration of 3×10^9 cells/mL in a modified Tyrode's buffer (137 mM NaCl, 2.7 mM KCl, 0.9 mM MgCl2, 5.5 mM glucose, 3.3 mM NaH2PO4, 3.8 mM Hepes, pH 7.4). […] Platelets were then stimulated at 37° C. with 2 μg/mL (or 10 μg/mL) collagen or 0.1 U/mL thrombin (Chronolog Inc., Philadelphia, Pa.). Stimulation was stopped and platelets were lysed at the indicated time points by adding ice cold 3x Triton X-100 lysis buffer (150 mM NaCl, 15 mM EGTA, 3% Triton X-100, 3% Sodium deoxycholate, 0.3% SDS, 3 mM PMSF, 3 mM Na3 VO4, 60 μg/mL leupeptin, 60 μg/mL aprotinin, 50 mM Tris-HCl pH 7.4) and incubating for 1 hour on ice. […]
# For each drug concentration, a BTK/TEC kinase activity index as determined by comparing the ratios of the kinase activity in phosphorimager units (PIU) and density of the protein bands in densitometric scanning units (DSU) to those of the baseline sample and using the formula: Activity Index=[PIU of kinase band/DSU of BTK/TEC protein band]test sample: [PIU of kinase band/DSU of BTK/TEC protein band]baseline control sample (FIGS. 1A-1D).
# [3] = tested on: platelets; assay: Serotonin release from collagen-stimulated platelets; format: cell-based, human; details: LFM-A13 treated, N=4
# Description: Release of serotonin from collagen (10 and 20 μg/mL)-stimulated platelets was measured using a serotonin detection kit (Immunotech, Marseille, France) according to the manufacturer's specifications. Sonicated platelets were used for measurement of the total serotonin content of platelets.
# [4] = Pharmacokinetics in mice (HPLC plasma levels); details: mouse, in vivo
# Description: All collected blood samples were heparinized and centrifuged at 7,000xg for 5 minutes in a microcentrifuge to obtain plasma. The plasma samples were stored at −20° C. until analysis.
# The analytical column was equilibrated and eluted under isocratic conditions utilizing a flow rate of 1.0 mL/min at ambient temperature. The wavelength of detection was set at 294 nm. Peak width, response time, and slit were set at >0.03 min, 0.55 sec, and […], respectively. […] Following centrifugation at 300xg for 5 minutes, the supernatant was used for HPLC analysis using a system comprised of a Hewlett Packard (HP) series 1100 instrument equipped with an automated electronic degasser, a quaternary pump, an autosampler, an automatic thermostatic column compartment, diode array detector and a computer with a Chemstation software program for data analysis (Chen and Uckun, 1999; Malaviya et al., 2000). All extraction procedures were carried out at room temperature.
# The unweighed linear regression analysis of the standard curves was performed by using the CA-Cricket Graph III computer program, Version 1.0 (Computer Association, Inc., Islandia, N.Y.). […] Pharmacokinetic modeling and pharmacokinetic parameter estimations were carried out using the pharmacokinetics software, WinNonlin Program, Professional version 3.0 (Pharsight Inc., Mountain view, Calif.) (Chen and Uckun, 1999; Malaviya et al. 2000; Uckun et al., 1999).
# The elimination half-life was estimated by linear regression analysis of the terminal phase of the plasma concentration time profile. The area under the concentration time curve (AUC) was calculated by the linear trapezoidal rule between the first (0 hours) and last sampling time plus C/k, where C is the concentration at the last sampling time and k is the elimination rate constant. The systemic clearance (CL) was determined by dividing the does by the AUC (Chen and Uckun, 199; Malaviya et al., 2000; Uckun et al., 1999).
# A one-compartment, first order pharmacokinetic model was fit into the pharmacokinetic data. The numbers represent the average values estimated from the composite plasma concentration-time curve for pooled data. The mean±SEM values are indicated in parentheses. The values for the apparent volume of distribution (Vc) and systemic clearance (CL) were not corrected for bioavailability. t½=terminal elimination half-life; tmax=the time required to reach the maximum plasma drug concentration after i.p. administration.
# [5] = tested on: mice; assay: Platelet plug formation and clotting time after retro-orbital venupuncture in mice; format: in vivo; details: for clotting time % Control / Mean Clotting Time: C57BL/6 mice; for Mean Clotting Time: n = 3
# Description: Mice were placed in a tube holder and tail bleeding was performed with a 2 mm cut from the protruding tail tip, the tail was placed vertically into 10 mL normal saline in a 37° C. water bath and bleeding times determined as previously described (Teng et al., 1997). Platelet plug formation and clotting times on the eye after retro-orbital venupuncture were evaluated using published methods (Sheu et al., 1995).
# The blood of XID mice clotted approximately two minutes later than the CBA control mice. Following this pattern, blood from chronically treated mice also clotted two minutes later than control. […]
# [6] = 40 mg/kg, after retroorbital venupuncture
smiles,measurement,setting,value
"C/C(O)=C(\C#N)C(=O)Nc1cc(Br)ccc1Br [LFM-A13, α-cyano-β-hydroxy-β-methyl-N-(2,5-dibromophenyl)-propenamide]",collagen-induced pseudopod formation,"[1]; 30 min, collagen 10 μg/mL, 10 seconds",inhibited collagen-induced pseudopod formation; also recorded: no pseudopods were observed
same,thrombin-induced shape changes,[1]; thrombin 0.1 U/mL,did not inhibit the thrombin-induced shape changes
same,collagen-induced stimulation of TEC kinase in platelets,[2]; collagen-stimulated platelets,prevented collagen-induced stimulation of TEC kinase
same,baseline activity of TEC in unstimulated platelets,[2]; unstimulated platelets,did not reduce the baseline activity of TEC
same,serotonin in platelet supernatants,[3],369 ± 14 nM
same,AUC,"[4]; ip, 10 mg/kg",66.3 ± 3 µM·h
same,Cmax,"[4]; ip, 10 mg/kg",94 ± 8 µM
same,AUC,"[4]; ip, 20 mg/kg",183 ± 14 µM·h
same,Cmax,"[4]; ip, 20 mg/kg",243 ± 16 µM
same,AUC,"[4]; ip, 25 mg/kg",308 ± 31 µM·h
same,Cmax,"[4]; ip, 25 mg/kg",383 ± 35 µM
same,AUC,"[4]; ip, 40 mg/kg",653 ± 47 µM·h
same,Cmax,"[4]; ip, 40 mg/kg",640 ± 44 µM
same,AUC,"[4]; ip, 50 mg/kg",1020 ± 31 µM·h
same,Cmax,"[4]; ip, 50 mg/kg",940 ± 16 µM
same,AUC,"[4]; iv, 25 mg/kg",384 ± 30 µM·h
same,Cmax,"[4]; iv, 25 mg/kg",731 ± 22 µM
same,clotting (eye clot) time,[5]; [6],2.6 ± 0.4 min
same,local platelet plug (eye plug) formation time,[5]; [6],45 ± 4 s
same,clotting time % Control,[5]; 25 mg/kg chronic 36 days,231%
same,Mean Clotting Time,[5]; 25 mg/kg chronic 36 days,3.7 min
same,clotting time % Control,[5]; 40 mg/kg acute 1 hour,164%
same,Mean Clotting Time,[5]; 40 mg/kg acute 1 hour,2.6 min

# From patent publication US6589992B2, “Inhibiting collagen-induced platelet aggregation” (Parker Hughes Institute, priority 1999, dated 2003)
